Test results taken from PubChem BioAssay (NCI).
Values joined by “and” are separate entries in the source; they are usually repeats but may differ in a detail not shown here. Equal entries are not always repeated.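 1) Cells in 96-well plates. 2) Compound, 48 h, 5 concentrations. 3) Linear interpolation between surrounding doses. 4) Unreached endpoint = highest concentration. At the GI50, growth is halved. TGI is the concentration that stops growth completely.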

Experiments:
Experiment in all cases: NCI-60 cell line screen, 48 h
SF-268 CNS = system: SF-268 CNS
HCT-15 colon = system: HCT-15 colon
BT-549 breast = system: BT-549 breast
SNB-75 CNS = system: SNB-75 CNS
UACC-62 melanoma = system: UACC-62 melanoma
HS 578T breast = system: HS 578T breast
PC-3 prostate = system: PC-3 prostate
M14 melanoma = system: M14 melanoma
RPMI-8226 leukemia = system: RPMI-8226 leukemia
HL-60(TB) leukemia = system: HL-60(TB) leukemia

SMILES | GI50 (SF-268 CNS) | TGI (SF-268 CNS) [µM] | GI50 (HCT-15 colon) [µM] | TGI (HCT-15 colon) | GI50 (BT-549 breast) [µM] | TGI (BT-549 breast) [µM] | GI50 (SNB-75 CNS) | TGI (SNB-75 CNS) [µM] | GI50 (UACC-62 melanoma) | TGI (UACC-62 melanoma) | GI50 (HS 578T breast) [µM] | TGI (HS 578T breast) [µM] | GI50 (PC-3 prostate) | TGI (PC-3 prostate) | GI50 (M14 melanoma) | TGI (M14 melanoma) [µM] | GI50 (RPMI-8226 leukemia) | TGI (RPMI-8226 leukemia) [µM] | GI50 (HL-60(TB) leukemia) [µM] | TGI (HL-60(TB) leukemia)
CC(C)(O)Cn1c(=O)c(Oc2ccc(F)cc2F)cc2cnc(NC3CCOCC3)nc21 | > 25 µM | > 25 | > 25 | > 25 µM | > 25 | > 25 | > 22.3 µM | > 25 | > 25 µM | > 25 µM | > 25 | > 25 | > 25 µM | > 25 µM | > 25 µM | > 25 | > 25 µM | > 25 | > 25 | > 25 µM
Cc1cc(Cl)n2c(nc3ccccc32)c1C#N | 0.46 µM | 11.4 | 0.53 | 4.12 µM | 0.473 | 2.28 | 1.33 µM | 8.53 | 1.14 µM | 3.66 µM | 1.02 | 23.4 | 0.383 µM | 1.6 µM | 0.395 µM | 2.04 | 0.231 µM | 2.45 | 0.241 | 1.09 µM
O=C(Cn1ccnc1[N+](=O)[O-])NCCO |  | > 100 |  | > 100 µM |  | > 100 |  | > 100 |  | > 100 µM |  | > 100 |  | > 100 µM |  | > 100 |  | > 100 |  | > 100 µM
C#Cc1cccc(NC(=O)Nc2ccccc2NC(=O)CCl)c1 | 15.2 µM | 43.2 | 15.1 | 41.6 µM | 20 | 65.5 | 9.11 µM | 19.8 | 13.8 µM | 25.8 µM | 17.1 | 56.1 | 21.5 µM | 58 µM | 27.8 µM | > 82.5 | 15.2 µM | > 82.5 | 25.2 | > 82.5 µM
CC/C=C/[C@@H]1C=C[C@@H]2CCC[C@H]2[C@@H]1CC[C@H](O)[C@H](C)N | 1.71 µM | 3.42 | 1.54 | 2.87 µM | 2.49 | 8.03 | 0.538 µM | 5.23 | 1.61 µM | 2.96 µM | 1.43 | 3.15 | 2.91 µM | 12.5 µM | 1.6 µM | 2.98 | 3.07 µM | 9.79 | 1.33 | 2.91 µM
COc1ccc(C(=O)c2cc3c(N)c(C(=O)Nc4cccc(Cl)c4)sc3nc2C)cc1 | 2.49 µM | > 33.3 | 1.32 | > 33.3 µM | 7.69 | > 33.3 | 0.743 µM | 2.75 | 1.12 µM | > 33.3 µM | 0.957 | 6.62 | 1.48 µM | > 33.3 µM | 1.08 µM | > 33.3 | 1.19 µM | > 33.3 | 1.09 | > 33.3 µM
CCc1nc(N)nc(N)c1-c1ccc(Cl)cc1 | 6.89 µM | > 100 | 4.74 | > 100 µM |  | > 100 | > 100 µM | > 100 | 3.93 µM | > 100 µM | > 100 | > 100 | 5.21 µM | > 100 µM |  | > 100 | 56.6 µM | > 100 | 6.67 | > 100 µM
Cc1cc(O)c2c(c1)C[C@@H](O)C1=C2C(=O)c2c(O)ccc(OC3CC(O)C(OC4CC(OC5CCC(OC6CC(O)C(OC7CC(OC8CCC(O)C(C)O8)C(O)C(C)O7)C(C)O6)C(C)O5)C(O)C(C)O4)C(C)O3)c2C1=O (some centres not stated) | 0.295 µM and 0.467 µM |  | 0.231 | 0.148 µM and 0.488 µM |  | 0.49 | 1.48 µM and 1.99 µM |  | 0.237 µM and 0.315 µM | 0.134 µM and 0.658 µM and 1.18 µM | 1.59 |  | 0.4 µM and 0.849 µM | 0.56 µM and 1.49 µM and 3.5 µM | 0.822 µM and 1.28 µM |  | 0.321 µM and 0.483 µM |  | 0.112 | 0.134 µM and 0.291 µM
COc1ccc(C(=O)CC2(O)C(=O)Nc3c(Cl)ccc(Cl)c32)cc1 (configuration not stated) | 5.95 µM | > 61.1 | 0.885 | 86.4 µM | 2.43 | > 70.9 | 1.89 µM | > 29.8 | 0.791 µM | > 100 µM | 1.66 | > 24.6 | 2.8 µM | > 100 µM | 0.56 µM | > 22.2 | 2.64 µM | 15.5 | 0.384 | 3.51 µM
C=C1C(=O)OC(CCCCCCCC)C1C(=O)O (configuration not stated) | 19.5 µM | 39.6 | 15.9 | 30.8 µM | 12.6 | 26.6 | 16 µM | 34.6 | 12.1 µM | 24.7 µM | 17.3 | > 86.6 | 20.2 µM | 40 µM | 14.6 µM | 29.7 | 15 µM | 59.7 | 16.6 | 46.4 µM
